Measured values taken from patent US20230062911A1, “COMPOSITIONS AND METHODS FOR TREATING, PREVENTING, AND/OR AMELIORATING CHEMOTHERAPY-INDUCED PREMATURE OVARIAN FAILURE (POF)” (Rutgers, The State University of New Jersey, priority 2021, published 2023).
Entries after “also recorded” stand apart in the source; their conditions may differ.

Assays:
[1] = tested on: JNK; experiment: Phosphorylation of JNK in oocytes of primordial follicles, western blot and immunostaining; assay type: in vivo, CD-1 female mice; conditions: for activation of JNK in the oocytes of primordial follicles: general statement, no dose given
[2] = tested on: ovarian follicles; experiment: Follicle counting 6 weeks after treatment of 21-day-old mice; assay type: in vivo, CD-1 female mice
Text: Ovarian functions were examined at 6-weeks after treatment in order to evaluate the long-term effect of pharmacological JNK inhibition on female ovarian reserve and other ovary reproductive outcomes.

[3] = tested on: primordial follicles; experiment: DOX-induced primordial follicle loss in 5-day-old mice; assay type: in vivo, CD-1 female mice; conditions: co-treatment SP600125 50 mg/kg with DOX 10 mg/kg i.p.
Method: (§1) Next, 5-day-old CD-1 female mice were intraperitoneally injected with 10 mg/kg DOX and 50 mg/kg SP600125, a specific JNK inhibitor.

[4] = tested on: Bax, Puma, Noxa; experiment: qRT-PCR of apoptosis mediators in whole neonatal ovaries; assay type: in vivo, CD-1 female mice; conditions: co-treatment with DOX
Method: as §1

[5] = tested on: CD-1 female mice; experiment: Ovarian cyclicity by vaginal smear in 21-day-old treated mice; assay type: in vivo; conditions: 21-day-old mice, last 14 days of 6 weeks post treatment
Text: The transition of various estrous cycle stages of three representative mice (a total of 6-8 mice in each group) are shown for each treatment group, including proestrus, estrus, metestrus, and diestrus.
Ovarian cyclicity was next examined by the method of vaginal smear in the last 14 days of the 6-week post DOX / SP600125 treatment.

[6] = tested on: TAp63α; experiment: Phosphorylation of TAp63α in ovaries, immunostaining and western blot; assay type: in vivo, CD-1 female mice
Method: (§2) FIG. 2B provides a western blot showing expression of γH2AX and pTAp63α at 3 h and 6 h. The mobility shift of TAp63α indicated phosphorylation (i.e., p-TAp63α), which further indicated cell death initiation through apoptosis.
TAp63a functions to respond to DNA damage that results in its phosphorylation and subsequent oocyte apoptosis initiation in the primordial follicles.
as §1

[7] = tested on: JNK (c-Jun N-terminal kinase) signaling pathway; experiment: RNA sequencing / Gene Ontology analysis of ovaries after DOX; assay type: in vivo, CD-1 female mice; conditions: 5-day-old mice, DOX 10 mg/kg i.p., ovaries at 6 hours
Method: Thus, the molecular mechanisms of DOX-induced primordial follicle oocyte apoptosis were investigated as described herein. Fiveday-old CD-1 female mice were intraperitoneally injected with vehicle or 10 mg/kg DOX and ovaries were harvested at 6 hours for RNA sequencing.

[8] = tested on: γ-H2AX; experiment: Ovarian expression of γ-H2AX (DNA damage marker) after DOX, immunostaining and western blot; assay type: in vivo
Method: as §2
Expression of γ-H2AX, a well-characterized biomarker of DNA double strand breaks (DDSBs) as well as the major mechanism of DOX’s cytotoxicity on tumorous cells, was detected with administration of DOX.

SMILES	activation of JNK in the oocytes of primordial follicles [1]	numbers of all staged follicles ([2]; SP600125 alone)	effect on DOX-induced reduction of all stages of follicles ([2]; co-treatment with DOX)	effect on DOX-induced primordial follicle loss [3]	effect on DOX-induced transcriptional induction of Bax [4]	effect on DOX-induced transcriptional induction of Noxa [4]	effect on DOX-induced transcriptional induction of Puma [4]	ovarian cyclicity (estrous cycle stages) ([5]; DOX / SP600125 co-treatment)	ovarian cyclicity (estrous cycle stages) ([5]; SP600125 alone)	effect on DOX-induced hyper-phosphorylation of TAp63α ([6]; 5-day-old mice, SP600125 50 mg/kg i.p. with DOX 10 mg/kg i.p., western blot)	effect on cisplatin-induced phosphorylation of TAp63α ([6]; 5-day-old mouse ovaries, SP600125 50 mg/kg i.p. with cisplatin 20 mg/kg i.p.)	numbers of all stages of ovarian follicles (primordial, primary, secondary, antral) ([2]; DOX alone)	phosphorylation of JNK in the oocytes of primordial follicles ([1]; 5-day-old mice, DOX 10 mg/kg i.p., 6 h)	JNK signaling pathway by RNA sequencing Gene Ontology analysis [7]	ovarian cyclicity (estrous cycle stages) ([5]; DOX alone)	expression of γ-H2AX in ovarian epithelial cells and oocytes ([8]; DOX 10 mg/kg i.p., 6 h)	time at which increased γ-H2AX expression peaked ([8]; after DOX treatment, western blot)	phosphorylation of TAp63a in ovaries ([6]; 6 h after DOX treatment, western blot)	expression of phospho-p63 in oocytes of primordial follicles ([6]; 6 h post DOX treatment, immunostaining)
N.N.[Cl][Pt][Cl] [cisplatin, cis-diammineplatinum (II) dichloride]	selectively activate																		
O=C1c2ccccc2-c2n[nH]c3cccc1c23 [SP600125, dibenzo[cd,g]indazol-6(2H)-one]		did not affect	effectively prevented the reduction	significantly ameliorated; also recorded: prevented DOX-induced primordial follicle loss	prevented the transcriptional induction	prevented the transcriptional induction	prevented the transcriptional induction	comparable ovarian cyclicity to the control group	comparable ovarian cyclicity to the control group	effectively prevented; also recorded: blocked the phosphorylation	blocked the phosphorylation								
COc1cccc2c1C(=O)c1c(O)c3c(c(O)c1C2=O)C[C@@](O)(C(=O)CO)C[C@@H]3O[C@H]1C[C@H](N)[C@@H](O)[C@H](C)O1 [DOX, (8S,10S)-10-(((2R,4S,5R,6S)-4-amino-5-hydroxy-6-methyltetrahydro-2H-pyran-2-yl)oxy)-6,8,11-trihydroxy-8-(2-hydroxyacetyl)-1-methoxy-7,8,9,10-tetrahydrotetracene-5,12-dione]	selectively activate											remarkably reduced	selectively increased; also recorded: selective hyper-phosphorylation	significantly changed; also recorded: activated	interfered with mouse ovarian cyclicity	significantly increased	6 h	hyper-phosphorylated	significantly induced
